# Where two headings read alike, the source gives them in different places.
# Experiments:
# [1] = tested on: MIA PaCa-2 cells; assay: Cell proliferation activity of MIA PaCa-2 by CellTiter-Glo reagent; assay type: cell-based; conditions: for IC50: Homo sapiens, MIA PaCa-2
# In short: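 Cells seeded at 2000-3000/well, incubated overnight, then exposed to compound gradient dilutions in DMEM for 72 h at 37° C, 5% CO2. Viability read by CellTiter-Glo luminescence; IC50 fitted from the proliferation inhibition curve.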
# [2] = Acute toxicity test, single oral dose in SD rats; assay type: in vivo; conditions: SD rats, single oral gavage, 500, 1000, 2000 mg/kg
# Method: Test samples: Compound 3-2, and Compound 3-6.
# Animal species and number: SD rat; 6 animals per group (half male and half female).
# Administration mode: oral administration by gavage.
# Animal grouping and administration dose: vehicle blank group, Compound 3-2 group (500 mg/kg, 1000 mg/kg, 2000 mg/kg), Compound 3-6 group (500 mg/kg, 1000 mg/kg, 2000 mg/kg).
# Administration frequency: once.
# Death, morbidity, respiration, secretions, feces, and diet, drinking situation and so on were observed, and the changes in body weight of the rats during the administration period were recorded. The contents of detailed clinical observation included but were not limited to behavioral activity, skin, coat, eyes, ears, nose, abdomen, external genitalia, anus, extremities, feet, and respiration. The animals in each group were euthanized at the end of observation period, and all animals were dissected and subjected to gross observation.
# [3] = Analysis regarding therapeutic safety window; conditions: in vivo, oral, 5 days
# [4] = tested on: MIA PaCa-2-derived xenograft tumor; assay: Pharmacodynamics test of MIA PaCa-2-derived xenograft tumor model in nude mice (test 6); assay type: in vivo
# [5] = tested on: NCI-H358 cells; assay: Cell proliferation activity of NCI-H358 by CellTiter-Glo reagent; assay type: cell-based; conditions: Homo sapiens, NCI-H358; test 8, method of test 3; read-out: IC50 of proliferation inhibitory activity of the compound on NCI-H358 cell line
# In short: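 NCI-H358 cells seeded at 2000–3000 per well and grown overnight at 37° C, 5% CO2 before compound exposure. Viability read by CellTiter-Glo luminescence; IC50 from curve fitting.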
# [6] = tested on: NCI-H358; assay: Cell proliferation inhibitory activity on NCI-H358, 3D model test (agarose colony formation); assay type: cell-based
# In short: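 NCI-H358 cells in soft agarose over a high-concentration agarose base were incubated overnight at 37 °C, then given serially diluted compound in RPMI 1640, with medium changes during CO2 incubation. Colonies were stained with NBT and counted, and IC50 for proliferation inhibition was derived against solvent control.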
# [7] = tested on: NCI-H358-derived xenograft tumor; assay: Pharmacodynamics study of NCI-H358-derived xenograft tumor model, combination with Afatinib or Trametinib (test 10); assay type: in vivo, nude mice; conditions: i.g. QD×21 days, 3-2 10 mg/kg, Afatinib 10 mg/kg, Trametinib 0.1 mg/kg
# Method: Animal species and number: Balb/c Nude; 6 animals per group. Test samples: […] Test groups: blank solvent control group; […] NCI-H358 tumor cells in logarithmic growth phase were cultured in vitro and collected, and inoculated subcutaneously into the right back of nude mice at a quantity of 5×10^6 cells/each. When the tumor volume reached 150-300 mm^3, the tumor-bearing nude mice were randomly grouped. Subsequently, the animals in each group were administered, and the day of the first administration was defined as day 1 of the test. Administration frequency: once a day. General state observation: observation time and frequency: once a day; observation indexes or contents: including but not limited to administration location, appearance and signs, general behavioral activities, mental status, death and other abnormal performance of the animals. The animals were euthanized at the end of the test. Tumor volume calculation: V=½×long diameter×short diameter^2 (mm^3).
smiles,measurement,setting,value
C=CC(=O)N1CCN(c2nc(=O)n(-c3c(C)ccnc3C(C)C)c3nc(-c4ccccc4C=C)c(Cl)cc23)[C@@H](C)C1 [Compound 3-2],anti-cell proliferation activity against KRAS G12C mutant type cells MIA PaCa-2 (in words),"[1]; 72 h, CellTiter-Glo",significant anti-cell proliferation activity
same,IC50,"[1]; 72 h, CellTiter-Glo, read-out: IC50 value of cell proliferation inhibitory activity of the compound on MIA PaCa-2",< 0.05 µM
same,IC50,"[1]; test 12, method of test 2, read-out: IC50 of proliferation inhibitory activity of the compound on MIA Paca-2 cell line",≤ 0.015 µM
same,proliferation inhibitory activity on MIA Paca-2 cell line compared with Compound TM-2 (in words),[1]; test 12,remarkable better
same,death or morbidity after single dose (in words),[2],No animals in each group were dead or close to death
same,MTD,"[2]; both sexes, rat, in vivo, read-out: maximum tolerated dose (MTD)",≥ 2000 mg/kg
same,therapeutic safety window: ratio of toxic dose to effective dose,[3],greater than 80
same,inhibition effect on the growth of subcutaneously transplanted tumors derived from pancreatic cancer MIA paca-2 cells in nude mice (in words),[4]; 10 mg/kg QD×15 days,significant inhibition effect
same,Tumor inhibition rate (%),"[4]; MIA PaCa-2 xenograft, nude mice, 10 mg/kg oral gavage QD×15 days",+++ (“+++” represents a tumor inhibition rate of >80%)
same,IC50,[5],0.01 µM
same,anti-cell proliferation activity against KRAS G12C mutant type cells NCI-H358 (in words),[6]; 3D model test,significant anti-cell proliferation activity
same,IC50,"[6]; Homo sapiens, NCI-H358, 3D agarose colony formation, NBT staining",< 0.05 µM
same,Tumor inhibition rate (%),[7],++ (“++” represents a tumor inhibition rate of 130%˜200%)

# Reference: US20230143751A1, “Aromatic Compound And Use Thereof In Preparing Antineoplastic Drugs” (Shanghai Zheye Biotechnology Co. Ltd., priority 2020, published 2023)
